The record followed here is US10377747B2, “2-arylamino pyridine, pyrimidine or triazine derivatives, preparation method and use thereof” (Wuxi Shuangliang Biotechnology Co., Ltd., priority 2015, dated 2019).

Assay [1] relates to H1975 (non-small-cell lung cancer cells. EGFR L858K/T790M). Nature of the assay: Tumor cell proliferation and growth inhibition analysis (Cell Titer-Glo, 72 h), H1975. The class given is cell-based. The settings on record: Homo sapiens. An excerpt: (§1) […] cell proliferation assay is described as follows.
(§2) Tumor cell proliferation and growth inhibition analysis: H1975 (non-small-cell lung cancer cells. EGFR L858K/T790M) and A431 (human epidermal cancer cells, EGFR wild type) cells were commercially available from the ATCC cell bank. […] The growth medium for A431 cells was DMEM (GIBCO, 11995-065), 10% fetal bovine serum. The influence exerted by the compounds on the proliferation activity of tumor cells was detected by Cell Titer-Glo assay. Tumor cells were exposed to the treatment conditions for 72 h, and the cell density used in each experiment for each cell line was adjusted according to the 72 h cell growth curve. 10 concentration gradients and three-fold dilutions (0.5 nM-10 μM) were set for compounds to be tested, and 3 parallel controls were used for each concentration value.
(§3) Trypsin was used for digesting cells in the logrithmic growth phase to prepare cell suspension, which was counted by a Roche counter and appropriately diluted with complete medium to a final cell concentration of 1˜2×10^3 cell/mL. 384-well plates were seeded with cells, and 22.6 μL were seeded for each well. 3 parallels were set. The plates were incubated in an incubator with 5% CO2 at 37° C. overnight. The compounds were dissolved in DMSO to prepare […] mother liquor. […] 2 μL of compound solution was added into 18 μL of culture medium, and fully mixed. Then 2 μL of mixed solution of compound and culture medium was added into 18 μL of culture medium, and fully mixed. 2.4 μL of mixtures were added into a 384-well plates. […] After cultivation for 72 h, 24 μL of Cell Titer-Glo reagent was added. The contents were mixed on an orbital shaker for 2 min to induce cell lysis. The 384-well plates were incubated at room temperature for 10 min to stabilize the […] signal value. Data was read by Infinite® M1000 PRO (TECAN), and calculated with GraphPad Prism version 5.0. GI50 value was obtained by adjustment using a non-linear regression model of dose response curves.
(In ATP-based viability assays light output follows the ATP content of the culture.)

For assay [2], the system named is A431 (human epidermal cancer cells, EGFR wild type). Nature of the assay: Tumor cell proliferation and growth inhibition analysis (Cell Titer-Glo, 72 h), A431. The settings on record: A-431, 72 h exposure. It is filed as cell-based.
Excerpt: as §1, §2, §3

The mark [3] stands for this setting: NCI-H1975, H1975 cells, 72 h exposure, Cell Titer-Glo, read-out: H1975 GI50.

Where two headings read alike, the source gives them in different places. Where only a bound is given, the exact number is not on record here.

Broadly, the GI50 is the concentration at which growth is held to half of that of the control.

For `C=CC(=O)Nc1cc(Nc2nccc(-c3cn(C)c4ccccc34)n2)c(OC)cc1N(C)CCN(C)C` [AZD9291, reference compound], in assay [1] (NCI-H1975, 72 h, read-out: H1975 GI50 (nM)), the GI50 turned out to be 2.8 nM.

Turning to `C=CC(=O)Nc1cc(Nc2nccc(-c3noc4ccccc34)n2)c(OC)cc1N(C)CCN(C)C` [Example 1], the GI50 in assay [2] was roughly 110 nM; in assay [1] (setting [3]), 7.3 nM.

For `C=CC(=O)Nc1cc(Nc2nccc(-c3noc4ccccc34)n2)c(OC)cc1N1CCN(C)CC1` [Example 2, N-(5-((4-(benzo[d]isoxazol-3-yl)pyrimidin-2-yl)amino)-4-methoxy-2-(4-methylpiperazin-1-yl)phenyl)acrylamide], the results for the 50% growth inhibitory concentration (GI50) in assay [2] and in assay [1] (setting [3]) were 728 nM and 168 nM, respectively.

For the molecule `C=CC(=O)Nc1cc(Nc2nccc(-c3noc4ccccc34)n2)c(OC)cc1N1CCC(N(C)C)CC1` [Example 3, N-(5-((4-(benzo[d]isoxazol-3-yl)pyrimidin-2-yl)amino)-2-(4-(dimethylamino)piperidin-1-yl)-4-methoxyphenyl)acrylamide], the GI50 is 1240 nM in assay [2] and 82.4 nM in assay [1] (setting [3]).

With `C=CC(=O)Nc1cc(Nc2nccc(-c3noc4ccccc34)n2)c(OC)cc1N1CCC[C@H]1CN(C)C` [Example 4, (S)—N-(5-((4-(benzo[d]isoxazol-3-yl)pyrimidin-2-yl)amino)-2-(2-((dimethno)methyl)pyrrolidin-1-yl)-4-methoxyphenyl)acrylamide], the GI50 in assay [2] is roughly 63400 nM; in assay [1] (setting [3]) it was 844 nM.

Regarding `C=CC(=O)Nc1cc(Nc2nccc(-c3noc4ccccc34)n2)c(OC)cc1N1CC2(CCCN2C)C1` [Example 5, N-(5-((4-(benzo[d]isoxazol-3-yl)pyrimidin-2-yl)amino)-4-methoxy-2-(5-methyl-2,5-diazaspiro[3.4]oct-2-yl)phenyl)acrylamide], the results for the GI50 in assay [2] and in assay [1] (setting [3]) were 1220 nM and 31.2 nM, respectively.

In the case of `C=CC(=O)Nc1cc(Nc2nccc(-c3noc4ccccc34)n2)c(OC(F)F)cc1N(C)CCN(C)C` [Example 6, N-(5-((4-(benzo[d]isoxazol-3-yl)pyrimidin-2-yl)amino)-4-(difluoromethoxy)-2-((2-(dimethylamino)ethyl)(methyl)amino)phenyl)acrylamide], the values for the GI50 in assay [2] and in assay [1] (setting [3]) were 89.1 nM and 4 nM, respectively.

As for `C=CC(=O)Nc1cc(Nc2nccc(-c3noc4ccccc34)n2)c(OC(F)F)cc1N1CCN(C)CC1` [Example 7, N-(5-((4-(benzo[d]isoxazol-3-yl)pyrimidin-2-yl)amino)-4-(difluoromethoxy)-2-(4-methylpiperazin-1-yl)phenyl)acrylamide], the results for the GI50 in assay [2] and in assay [1] (setting [3]) were roughly 1720 nM and 49 nM, respectively.

As for `C=CC(=O)Nc1cc(Nc2nccc(-c3noc4ccccc34)n2)c(OC(F)F)cc1N1CC(N(C)C)C1` [Example 8, N-(5-((4-(benzo[d]isoxazol-3-yl)pyrimidin-2-yl)amino)-4-(difluoromethoxy)-2-(3-(dimethylamino)azetidin-1-yl)phenyl)acylamide], the 50% growth inhibitory concentration (GI50) was found to be 299 nM in assay [2] and 26.1 nM in assay [1] (setting [3]).

Regarding `C=CC(=O)Nc1cc(Nc2nccc(-c3noc4ccccc34)n2)c(OC(F)F)cc1N1CCC(N(C)C)CC1` [Example 9, N-(5-((4-(benzo[d]isoxazol-3-yl)pyrimidin-2-yl)amino)-4-(difluoromethoxy)-2-(4-(dimethylamino)piperidin-1-yl)phenyl)acrylamide], the figures for the concentration for 50% growth inhibition (GI50) in assay [2] and in assay [1] (setting [3]) were greater than 1000 nM and 24.2 nM, respectively.

With `C=CC(=O)Nc1cc(Nc2nccc(-c3noc4ccccc34)n2)c(OC(F)F)cc1N1CCC[C@H]1CN(C)C` [Example 10], the concentration for 50% growth inhibition (GI50) is greater than 1000 nM in assay [2] and 285 nM in assay [1] (setting [3]).

With `C=CC(=O)Nc1cc(Nc2nccc(-c3noc4ccccc34)n2)c(OC(F)F)cc1N1CC2(CCCN2C)C1` [Example 11, N-(5-((4-(benzo[d]isoxazol-3-yl)pyrimidin-2-yl)amino)-4-(difluoromethoxy)-2-(5-methyl-2,5-diazaspiro[3.4]oct-2-yl)phenyl)acrylamide], the values for the 50% growth inhibitory concentration (GI50) in assay [2] and in assay [1] (setting [3]) were 690 nM and 36 nM, respectively.

For the molecule `C=CC(=O)Nc1cc(Nc2nccc(-c3cn(C)c4cccnc34)n2)c(OC)cc1N(C)CCN(C)C` [Example 12, N-(2-((2-(dimethylamino)ethyl)(methyl)amino)-4-methoxy-5-((4-(1-methyl-1H-pyrrolo[3,2-b]pyridin-3-yl)pyrimidin-2-yl)amino)phenyl)acrylamide], the GI50 in assay [2] was found to be 10200 nM; in assay [1] (setting [3]), 6.8 nM.

Consider `C=CC(=O)Nc1cc(Nc2nccc(-c3cn(C)c4cccnc34)n2)c(OC)cc1N1CCN(C)CC1` [Example 13, N-(4-methoxy-5-((4-(1-methyl-H-pyrrolo[3,2-b]pyridin-3-yl)pyrimidin-2-yl)amino)-2-(4-methylpiperazin-1-yl)phenyl)acrylamide], for which the GI50 in assay [2] worked out at 1560 nM; in assay [1] (setting [3]), 175 nM.

As to `C=CC(=O)Nc1cc(Nc2nccc(-c3cn(C)c4cccnc34)n2)c(OC)cc1N1CC(N(C)C)C1` [Example 14, N-(2-(3-(dimethylamino)azetidin-1-yl)-4-methoxy-5-((4-(1-methyl-1H-pyrrolo[3,2-b]pyridin-3-yl)pyrimidin-2-yl)amino)phenyl)acrylamide], the results for the GI50 in assay [2] and in assay [1] (setting [3]) were roughly 3520 nM and 1460 nM, respectively.

`C=CC(=O)Nc1cc(Nc2nccc(-c3cn(C)c4cccnc34)n2)c(OC)cc1N1CCC(N(C)C)CC1` [Example 15, N-(2-(4-(dimethylamino)piperidin-1-yl)-4-methoxy-5-((4-(1-methyl-1H-pyrrolo[3,2-b]pyridin-3-yl)pyrimidin-2-yl)amino)phenyl)acrylamide]: the concentration for 50% growth inhibition (GI50) in assay [2] was found to be 5370 nM; in assay [1] (setting [3]) it was 77.5 nM.

Take `C=CC(=O)Nc1cc(Nc2nccc(-c3cn(C)c4cccnc34)n2)c(OC)cc1N1CCC[C@H]1CN(C)C` [Example 16]: the 50% growth inhibitory concentration (GI50) was found to be 2100 nM in assay [2] and 2880 nM in assay [1] (setting [3]).

Regarding `C=CC(=O)Nc1cc(Nc2nccc(-c3cn(C)c4cccnc34)n2)c(OC)cc1N1CC2(CCCN2C)C1` [Example 17, N-(4-methoxy-5-((4-(1-methyl-1H-pyrrolo[3,2-b]pyridin-3-yl)pyrimidin-2-yl)amino)-2-(5-methyl-2,5-diazaspiro[3.4]oct-2-yl)phenyl)acrylamide], the GI50 in assay [2] came to 1300 nM; in assay [1] (setting [3]), 39.8 nM.

On to `C=CC(=O)Nc1cc(Nc2nccc(-c3cn(C)c4cccnc34)n2)c(OC(F)F)cc1N(C)CCN(C)C` [Example 18], for which the figures for the GI50 in assay [2] and in assay [1] (setting [3]) were 296 nM and 6.7 nM, respectively.

Regarding `C=CC(=O)Nc1cc(Nc2nccc(-c3cn(C)c4cccnc34)n2)c(OC(F)F)cc1N1CCN(C)CC1` [Example 19, N-(4-(difluoromethoxy)-5-((4-(1-methyl-1H-pyrrolo[3,2-b]pyridin-3-yl)pyrimidin-2-yl)amino)-2-(4-methylpiperazin-1-yl)phenyl)acrylamide], the GI50 in assay [2] was 1440 nM; in assay [1] (setting [3]), 166 nM.

For the molecule `C=CC(=O)Nc1cc(Nc2nccc(-c3cn(C)c4cccnc34)n2)c(OC(F)F)cc1N1CC(N(C)C)C1` [Example 20, N-(4-(difluoromethoxy)-2-(3-(dimethylamino)azetidin-1-yl)-5-((4-(1-methyl-1H-pyrrolo[3,2-b]pyridin-3-yl)pyrimidin-2-yl)amino)phenyl)acrylamide], the GI50 in assay [2] and in assay [1] (setting [3]) was greater than 1000 nM throughout.

Turning to `C=CC(=O)Nc1cc(Nc2nccc(-c3cn(C)c4cccnc34)n2)c(OC(F)F)cc1N1CCC(N(C)C)CC1` [Example 21, N-(4-(difluoromethoxy)-2-(4-(dimethylamino)piperidin-1-yl)-5-((4-(1-methyl-1H-pyrrolo[3,2-b]pyridin-3-yl)pyrimidin-2-yl)amino)phenyl)acrylamide], the concentration for 50% growth inhibition (GI50) in assay [2] amounted to 319 nM; in assay [1] (setting [3]), 35.9 nM.

Regarding `C=CC(=O)Nc1cc(Nc2nccc(-c3cn(C)c4cccnc34)n2)c(OC(F)F)cc1N1CCC[C@H]1CN(C)C` [Example 22, (S)—N-(4-(difluoromethoxy)-2-(2-((dimethylamino)methyl)pyrrolidin-1-yl)-5-((4-(1-methyl-1H-pyrrolo[3,2-b]pyridin-3-yl)pyrimidin-2-yl)amino)phenyl)acrylamide], the 50% growth inhibitory concentration (GI50) came to 724 nM in assay [2] and 184 nM in assay [1] (setting [3]).

Take `C=CC(=O)Nc1cc(Nc2nccc(-c3cn(C)c4cccnc34)n2)c(OC(F)F)cc1N1CC2(CCCN2C)C1` [Example 23, N-(4-(difluoromethoxy)-5-((4-(1-methyl-1H-pyrrolo[3,2-b]pyridin-3-yl)pyrimidin-2-yl)amino)-2-(5-methyl-2,5diazaspiro[3.4]oct-2-yl)phenyl)acryl amide]: the 50% growth inhibitory concentration (GI50) is 2440 nM in assay [2] and 110 nM in assay [1] (setting [3]).
